The target in one test is T1, Ube2N (Homo sapiens, UniProt P61088).
T1 construct: expressed in transfected cells; host or cells: HEK 293T
T1 sequence (P61088 1-152): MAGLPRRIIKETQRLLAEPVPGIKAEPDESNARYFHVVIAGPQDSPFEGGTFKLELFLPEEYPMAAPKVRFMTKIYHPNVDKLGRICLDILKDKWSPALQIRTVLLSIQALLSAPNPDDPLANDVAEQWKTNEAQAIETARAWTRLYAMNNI
The test is described as follows: T-REX targeted delivery efficiency, in-gel fluorescence (Cy5 Click). Particulars: HEK293T, Halo-Ube2N. In kind it is cell-based. As to the method: (§1) HEK 293T cells were maintained in 1×MEM+ Glutamax™ media supplemented with 10% FBS, 1×NEAA, 1× sodium pyruvate and 1× Pen-Strep. Cells were grown in a humidified, 5% CO2 incubator at 37° C. For in-gel fluorescence analysis and western blot, ˜0.7-0.8×10^6 HEK 293T cells were seeded in 8 cm^2 tissue culture dishes. 24 h later, cells were transfected using TransIT-2020 transfection reagent per the manufacturer's recommendation. Subsequent steps were performed under dim light. 24-36 h post transfection, monolayer of cells were treated with 25 μM Ht-PreHNE in serum-free media and incubated for 2.5 h. Cells were gently rinsed with serum-free media three times every 30 min over the next 1.5 h. Meanwhile, UV lamps were turned on 10 min prior to UV irradiation time. For samples designated for light exposure, lids were removed from the dishes and cells were placed under 365 nm UV light for 5-8 min. The cells were harvested, washed two times with ice-cold PBS and frozen in liquid nitrogen.
(§2) All steps were performed in dark or under dim light. Cells from 8 cm^2 plates were lysed in 30 μL buffer containing 50 mM HEPES (pH 7.6), 150 mM NaCl, 1% Nonidet P-40, 1× Roche cOmplete, mini, EDTA-free protease inhibitor cocktail, and 0.3 mM TCEP by rapid freeze-thaw (×3). […] Protein concentration of the clarified lysate was determined using Bradford assay. […]

A further test has as its target T2, Ube2V1 (Homo sapiens, UniProt Q13404).
T2 construct: the gene of interest (GOI) was PCR-amplified out from the original plasmid; expressed in transfected cells; host or cells: HEK 293T
The test is described as above. The test is classed as cell-based. As to conditions: HEK293T, Halo-Ube2V1. As to the method: as §1, §2

The next test has as its system NF-κB-signaling (Ube2V2). Description: NF-κB dual luciferase reporter assay after T-REX on Halo-Ube2V2. Particulars: T-REX HNEylation of Ube2V2 in place of Ube2V1. The test is classed as cell-based, human. As to the method:
1.5-1.6×10^5 HEK 293T cells were seeded in each well of a 48-well plate. 24 h later, the cells were transfected with 120 ng of the designated HaloTag fusion gene plasmid and 120 ng of NF-kB-Firefly luciferase: pCMV-Renilla luciferase (40:1) mix, using TransIT-2020 transfection agent. 24 h post-transfection, cells were treated with 25 μM Ht-PreHNE or vehicle (corresponding volume of DMSO alone) for 2.5 h, rinsed three times and irradiated with 365 nm UV light for 10 min. The cells were incubated for a further 8 h. For dual luciferase assay, cells in each well were gently washed with 1×DPBS and lysed in 65 μL of 1× passive lysis buffer containing in final concentrations 25 mM Tris (pH 7.8), 2 mM 1,2-CDTA, 2 mM DTT, 1 mg/mL BSA, 1% Triton X-100, and 10% Glycerol. 20 μL of the lysate was transferred to a white opaque 96-well plate (Corning). Firefly luciferase was read after adding 50 μL Firefly substrate (75 mM HEPES pH 8.0, 4 mM MgSO4, 20 mM DTT, 0.1 mM EDTA, 0.53 mM ATP, 0.27 mM Coenzyme-A, 0.47 mM D-Luciferin Firefly). Subsequently, 50 μL of Stop and Glow substrate (7.5 mM sodium acetate pH 5.0, 400 mM sodium sulfate, 10 mM CDTA, 15 mM sodium pyrophosphate, 0.025 mM APMBT, 5.5 μM Coelenterazine) was added and Renilla luciferase activity was measured.
On the technique in general: In a reporter assay the amount or activity of a reporter protein is the signal.

Test [1] deals with DNA synthesis in HEK293T cells. The test is described as follows: EdU/BrdU dual-pulse DNA-replication efficiency assay. Particulars: wt-Ube2V2 cells, post T-REX. In kind it is cell-based, human. The protocol: 4.8×10^5 cells were plated in glass-bottomed dishes (In Vitro Scientific) and allowed to grow for 24 h. Cells were transfected with the indicated plasmid and allowed to grow for another 24 h. Cells were then treated with 3 μM Ht-PreHNE no alkyne for 2.5 h followed by two rinses with serum-free medium. After this time, 20 μM EdU (final concentration) was added into cell culture media for 30 min before the 3rd rinse. The cells were rinsed another two times before light shining. 2.5 h post light irradiation, cells were treated with 50 μM BrdU for 30 min at 37° C. Then the cells were fixed with −20° C. pre-chilled MeOH for 20 min and then carried on to immunofluorescence assay as described elsewhere.
Whether DNA-synthesis stall (that occurs in response to many DNA damage events) accompanies C69-specific Ube2V2-HNEylation was investigated. A dual-pulse assay was used, which involves sequential, timed pulsing with two orthogonal DNA-labeling agents (EdU, followed by BrdU) that can be detected by fluorescence imaging (FIG. 13D). This assay is very accurate, because DNA-synthesis is measured over a defined time range, allowing a good estimate of synthesis-rate to be determined.

The target in the next test is Ube2V2 (Homo sapiens, UniProt Q15819). The test is described as follows: T-REX targeted delivery efficiency, in-gel fluorescence (Cy5 Click). The test is classed as cell-based. The arrangement: the gene of interest (GOI) was PCR-amplified out from the original plasmid; expressed in transfected cells; host or cells: HEK 293T. As to conditions: HEK293T, Halo-Ube2V2. The protocol: as §1, §2

Several values for one entry are separate records, joined by “and”; a condition that tells them apart may be missing. Identical values can stand only once.

Chain of Ube2V2 (Q15819 whole entry): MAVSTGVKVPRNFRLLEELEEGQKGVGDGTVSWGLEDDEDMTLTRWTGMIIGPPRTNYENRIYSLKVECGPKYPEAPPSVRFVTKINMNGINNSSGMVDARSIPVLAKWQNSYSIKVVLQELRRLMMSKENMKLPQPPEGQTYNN
T2 sequence (Q13404 1-170 isoform Q13404-2): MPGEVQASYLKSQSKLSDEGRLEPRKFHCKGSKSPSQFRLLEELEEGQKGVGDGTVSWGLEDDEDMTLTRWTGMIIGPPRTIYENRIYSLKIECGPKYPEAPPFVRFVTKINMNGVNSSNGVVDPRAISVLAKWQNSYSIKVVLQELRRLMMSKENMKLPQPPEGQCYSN

Turning to `CCCCCC(O)/C=C/C=O` (centres unmarked) [HNE, 4-hydroxynonenal], the “T-REX targeted delivery efficiency” value at Ube2N was under 2%; on Ube2V1, 5±2%; at Ube2V2, 15±6% and 15%. Moreover, the NF-κB-pathway activation result with NF-κB-signaling (Ube2V2) was “did not result in NF-κB-pathway activation”. The DNA-synthesis stall result in test [1] is recorded as “the extent of DNA-synthesis stall was similar to that observed under mitomycin-C treatment”.
